Data taken from patent publication US4598089A, “Leucine derivatives” (Hoffmann-La Roche Inc., priority 1983, dated 1986).

Columns and labels:
pig pancreas lipase = target: T1, pig pancreas lipase (Sus scrofa, UniProt P00591); experiment: inhibition of pancreas lipase (titrimetric, oleic acid liberated from triolein); assay type: biochemical
T1 sequence (P00591 1-450): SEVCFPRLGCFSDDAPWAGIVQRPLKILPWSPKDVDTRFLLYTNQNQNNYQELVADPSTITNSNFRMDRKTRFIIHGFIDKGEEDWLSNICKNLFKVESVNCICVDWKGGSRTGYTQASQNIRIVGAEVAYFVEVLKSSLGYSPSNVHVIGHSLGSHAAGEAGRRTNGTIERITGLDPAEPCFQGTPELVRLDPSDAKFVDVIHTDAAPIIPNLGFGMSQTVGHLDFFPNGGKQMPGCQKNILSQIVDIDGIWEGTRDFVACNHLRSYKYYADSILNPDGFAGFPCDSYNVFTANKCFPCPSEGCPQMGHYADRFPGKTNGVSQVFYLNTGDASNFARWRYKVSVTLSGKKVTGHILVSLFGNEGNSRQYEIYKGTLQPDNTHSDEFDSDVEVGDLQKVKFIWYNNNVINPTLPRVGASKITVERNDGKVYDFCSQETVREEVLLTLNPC
Excerpt: The IC50 is that concentration at which the lipase reactivity is inhibited to half of the maximum.

[1] = acute toxicity, single oral administration to mice; settings: mouse, in vivo
Method: An emulsion which contains 1 mM taurodeoxycholate, 9 mM taurodeoleate, 0.1 mM cholesterol, 1 mM egg lecithin, 15 mg/ml BSA (i.e., bovine serum albumine), 2 mM Tris-HCl, 100 mM sodium chloride, 1 mM calcium chloride and the substrate triolein is treated with the compound of formula I dissolved in ethanol or dimethyl sulphoxide (10% of the emulsion volume) and the reaction is started by the addition of 100 μl (175 U) of pig pancreas lipase. the pH is held at 8 during the reaction by the addition of sodium hydroxide. The IC50 is calculated from the consumption of sodium hydroxide determined during 10 minutes. The IC50 is that concentration at which the lipase reactivity is inhibited to half of the maximum. Table I hereinafter contains IC50 values determined for the compounds of formula I and data concerning the acute toxicity (LD50 after single oral administration to mice).

resorption of fats = experiment: inhibition of the resorption of fats, double-labelling experiment on mice (3H-triolein and 14C-oleic acid excreted with the feces); assay type: in vivo; settings: 40 mg/kg lipstatin, given as preparation containing about 10% lipstatin, test meal
Method: For this purpose, there is administered to the test animals a test meal, which contains ^3 H-triolein and ^14 C-oleic acid, and a compound of formula I. By measuring the radioactivity there is then determined the amount of ^3 H-triolein and ^14 C-oleic acid (in % of the amount administered) excreted with the feces.
*The experiments were carried out with a preparation which contained abou
10% lipstatin. The dosage specified is the amount of lipstatin

## CCCCC/C=C\C/C=C\C[C@@H](C[C@@H]1OC(=O)[C@H]1CCCCCC)OC(=O)[C@H](CC(C)C)NC=O [Lipstatin, (2S,3S,5S,7Z,10Z)-5-[(S)-2-formamido-4-methyl-valeryloxy]-2-hexyl-3-hydroxy-7,10-hexadecadienoic acid lactone]
Pig pancreas lipase
  IC50: 142 nM
[1]
  LD50: > 4000 mg/kg
Resorption of fats; controls 3.5 ± 0.3
  Excretion of Triolein in % of the amount administered: 56.8 ± 13 % of the amount administered
Resorption of fats; controls 10.1 ± 0.6
  Excretion of Oleic acid in % of the amount administered: 13.8 ± 5.6 % of the amount administered
